Laboratory results reported in publication PMC9820316, “Novel Arylpiperazine Derivatives of Salicylamide with α1-Adrenolytic Properties Showed Antiarrhythmic and Hypotensive Properties in Rats” (International Journal of Molecular Sciences, 2022).
Marks after values point to notes of the source that are not given here.

How the values were obtained:
[1] = system: adrenaline-induced arrhythmia model in rats; test: Prophylactic antiarrhythmic activity in adrenaline-induced arrhythmia; format: in vivo, rat; settings: for Blocks / Bradycardia / Extrasystoles / Mortality: number of animals with event
Protocol: (§1) The animals were anesthetized with thiopental (75 mg/kg ip). Depending on the model, either adrenaline, aconitine, or calcium chloride was used as an arrhythmogen. Adrenaline and aconitine were administered iv at a dose of 20 µg/kg, whereas calcium chloride was administered at a dose of 140 mg/kg to induce heart rhythm disturbances. The tested compounds were injected iv 15 min before the arrhythmogen. Aspel ASCARD apparatus (standard II lead, with the tape speed 50 mm/s and voltage calibration 1 mV = 1 cm) was used for ECG measurements. […] The ED50 was calculated using the method of Litchfield and Wilcoxon.

[2] = system: adrenaline-induced arrhythmia model in rats; test: Therapeutic antiarrhythmic activity in adrenaline-induced arrhythmia; settings: 1 mg/kg iv immediately after adrenaline 20 µg/kg; number of animals with event
α2-adrenergic receptors = test: α2-adrenoceptor radioligand binding assay ([3H]-clonidine, rat cortex); settings: rat cortex tissue, mean ± SEM, n.a. = did not bind at 10^−5 M
Protocol: The α1- and α2-adrenoceptor radioligand binding assays were performed on the rat cerebral cortex using previously described methods. […] The brains were homogenized using the ULTRA-TURRAX homogenizer in 10 mL of an ice-cold 50 mM Tris-HCl buffer (pH 7.6). The homogenates were centrifuged at 20,000× g for 20 min (0–4 °C). Subsequently, the cell pellet was resuspended in the Tris–HCl buffer and centrifuged again. Radioligand binding assays were carried out in plates (MultiScreen/Millipore). The final incubation mixture, with a volume of 300 μL, consisted of 240 μL of the tissue suspension, 30 μL of the radioligand solution, and 30 μL of the buffer containing 7–8 concentrations of the studied compounds. In order to measure the unspecific binding, 10 μM phentolamine (for [^3H]-prazosin) or 10 μM clonidine (for [^3H]-clonidine) were utilized. The incubation was completed by rapid filtration through Whatman GF/C filters using a vacuum manifold (Millipore). The filters were then washed twice with the assay buffer and placed in scintillation vials with a liquid scintillation cocktail. Radioactivity was measured in a WALLAC 1409 DSA liquid scintillation counter (Perkin Elmer, USA). All the assays were performed in duplicates, and the inhibitory constants (Ki) were calculated.

[3] = system: calcium chloride-induced arrhythmia model in rats; test: Prophylactic antiarrhythmic activity in calcium chloride-induced arrhythmia; format: in vivo, rat; settings: 5 mg/kg iv 15 min before calcium chloride 140 mg/kg; number of animals with event
Protocol: as §1

normal ECG in rats = test: Effect on a normal electrocardiogram in rats; format: in vivo, rat; settings: 5 mg/kg iv; for HR—heart rate / PQ interval / QRS complex / QTc (Bazzett's formula): mean ± SD; for PQ interval / QRS complex / QTc (Bazzett's formula): in ms (unit assumed)
Protocol: The procedure was performed to exclude the negative effects of the tested compounds on the normal ECG, according to the method described earlier. […] Firstly, animals were anesthetized with thiopental (75 mg/kg ip). […] The influence on PQ, QTc interval, QRS complex, and heart rate was evaluated. The Bazzett’s formula: QTc = QT/√RR was used to calculate QTc. All the studied compounds were administered at a dose of 5 mg/kg.

normotensive rats = test: Influence on blood pressure in the normotensive rats; format: in vivo, rat; settings: for DBP—diastolic blood pressure / SBP—systolic blood pressure: mean ± SD
Protocol: The experiment was performed according to the method described earlier. Normotensive Wistar rats were anesthetized with thiopental (75 mg/kg ip). The right carotid artery was cannulated with a polyethylene tube filled with heparin solution, using a Datamax apparatus (Columbus Instruments, Columbus, OH, USA). After 15 min of the stabilization period, the studied compounds were administered iv, and their effect on systolic and diastolic blood pressure was evaluated (Figure 4A).

[4] = system: aconitine-induced arrhythmia model in rats; test: Prophylactic antiarrhythmic activity in aconitine-induced arrhythmia; format: in vivo, rat; settings: 5 mg/kg iv 15 min before aconitine 20 μg/kg; number of animals with event
Protocol: as §1

[5] = 0.05 mg/kg iv 15 min before adrenaline 20 μg/kg
[6] = 0.1 mg/kg iv 15 min before adrenaline 20 μg/kg
[7] = 0.25 mg/kg iv 15 min before adrenaline 20 μg/kg
[8] = 0 min (prior to administration)
[9] = 0.5 mg/kg iv, 0 min (before administration)
[10] = 1.0 mg/kg iv, 0 min (before administration)

Structure (SMILES): Cl.NC(=O)c1ccccc1OCCCCN1CCN(c2cccc(Cl)c2)CC1 [JJGW01, 2-{4-[4-(3-chlorophenyl)piperazin-1-ylo]butoxy}benzamide hydrochloride]
- Blocks [1, 5]: 6/6
- Bradycardia [1, 5]: 6/6
- Extrasystoles [1, 5]: 6/6
- Mortality [1, 5]: 4/6
- Blocks [1, 6]: 5/6
- Bradycardia [1, 6]: 3/6
- Extrasystoles [1, 6]: 5/6
- Mortality [1, 6]: 0/6
- Blocks [1, 7]: 4/6
- Bradycardia [1, 7]: 2/6
- Extrasystoles [1, 7]: 4/6
- Mortality [1, 7]: 1/6
- ED50 ([1]; prophylactic, iv 15 min before adrenaline 20 μg/kg, confidence limits in brackets (Litchfield and Wilcoxon)): 0.10 (0.03–0.36) mg/kg
- Blocks [2]: 3/5
- Bradycardia [2]: 2/5
- Mortality [2]: 0/5
- Adrenergic Receptors—pKi α2 (α2-adrenergic receptors): 6.13 ± 0.02
- Blocks [3]: 6/6
- Bradycardia [3]: 6/6
- Extrasystoles [3]: 6/6
- Fibrillations [3]: 6/6
- Mortality [3]: 6/6
- effect on the heart rate during the ECG recording (normal ECG in rats): did not affect the heart rate
- HR—heart rate (normal ECG in rats; [8]): 311.8 ± 11.6
- PQ interval (normal ECG in rats; [8]): 42.3 ± 3.4
- QRS complex (normal ECG in rats; [8]): 49.3 ± 7.8
- QTc (Bazzett's formula) (normal ECG in rats; [8]): 196.0 ± 14.2
- HR—heart rate (normal ECG in rats; 5 min): 318.0 ± 28.5
- PQ interval (normal ECG in rats; 5 min): 42.3 ± 2.0
- QRS complex (normal ECG in rats; 5 min): 46.7 ± 5.6
- QTc (Bazzett's formula) (normal ECG in rats; 5 min): 193.7 ± 14.9
- HR—heart rate (normal ECG in rats; 10 min): 324.6 ± 23.1
- PQ interval (normal ECG in rats; 10 min): 41.3 ± 2.4
- QRS complex (normal ECG in rats; 10 min): 48.0 ± 4.2
- QTc (Bazzett's formula) (normal ECG in rats; 10 min): 186.6 ± 9.0
- HR—heart rate (normal ECG in rats; 15 min): 324.0 ± 23.1
- PQ interval (normal ECG in rats; 15 min): 41.0 ± 3.3
- QRS complex (normal ECG in rats; 15 min): 50.3 ± 4.6
- QTc (Bazzett's formula) (normal ECG in rats; 15 min): 190.6 ± 14.5
- DBP—diastolic blood pressure (normotensive rats; [9]): 95.3 ± 12.6 mmHg
- SBP—systolic blood pressure (normotensive rats; [9]): 130.7 ± 14.9 mmHg
- DBP—diastolic blood pressure (normotensive rats; 0.5 mg/kg iv, 5 min): 88.5 ± 14.3 mmHg
- SBP—systolic blood pressure (normotensive rats; 0.5 mg/kg iv, 5 min): 119.0 ± 13.4 mmHg
- DBP—diastolic blood pressure (normotensive rats; 0.5 mg/kg iv, 10 min): 85.0 ± 13.6 mmHg
- SBP—systolic blood pressure (normotensive rats; 0.5 mg/kg iv, 10 min): 115.7 ± 13.0 mmHg
- DBP—diastolic blood pressure (normotensive rats; 0.5 mg/kg iv, 20 min): 84.8 ± 8.5 mmHg
- SBP—systolic blood pressure (normotensive rats; 0.5 mg/kg iv, 20 min): 114.7 ± 8.8 mmHg
- DBP—diastolic blood pressure (normotensive rats; 0.5 mg/kg iv, 30 min): 84.3 ± 6.9 mmHg
- SBP—systolic blood pressure (normotensive rats; 0.5 mg/kg iv, 30 min): 114.5 ± 10.2 mmHg
- DBP—diastolic blood pressure (normotensive rats; 0.5 mg/kg iv, 40 min): 86.0 ± 10.3 mmHg
- SBP—systolic blood pressure (normotensive rats; 0.5 mg/kg iv, 40 min): 115.2 ± 12.6 mmHg
- DBP—diastolic blood pressure (normotensive rats; 0.5 mg/kg iv, 50 min): 88.3 ± 15.3 mmHg
- SBP—systolic blood pressure (normotensive rats; 0.5 mg/kg iv, 50 min): 116.8 ± 17.3 mmHg
- DBP—diastolic blood pressure (normotensive rats; 0.5 mg/kg iv, 60 min): 86.8 ± 15.5 mmHg
- SBP—systolic blood pressure (normotensive rats; 0.5 mg/kg iv, 60 min): 113.8 ± 16.1 mmHg
- DBP—diastolic blood pressure (normotensive rats; [10]): 87.7 ± 11.2 mmHg
- SBP—systolic blood pressure (normotensive rats; [10]): 112.5 ± 11.6 mmHg
- decrease of the diastolic blood pressure (normotensive rats; 1 mg/kg iv, 40th min after administration): 16%
- decrease of the diastolic blood pressure (normotensive rats; 1 mg/kg iv, 60th min after administration): 17%
- DBP—diastolic blood pressure (normotensive rats; 1.0 mg/kg iv, 5 min): 80.2 ± 10.8 mmHg
- SBP—systolic blood pressure (normotensive rats; 1.0 mg/kg iv, 5 min): 102.5 ± 9.5 ^d mmHg
- DBP—diastolic blood pressure (normotensive rats; 1.0 mg/kg iv, 10 min): 79.0 ± 11.9 mmHg
- SBP—systolic blood pressure (normotensive rats; 1.0 mg/kg iv, 10 min): 100.3 ± 10.4 ^d mmHg
- DBP—diastolic blood pressure (normotensive rats; 1.0 mg/kg iv, 20 min): 77.5 ± 12.1 mmHg
- SBP—systolic blood pressure (normotensive rats; 1.0 mg/kg iv, 20 min): 99.7 ± 11.3 ^c mmHg
- DBP—diastolic blood pressure (normotensive rats; 1.0 mg/kg iv, 30 min): 75.7 ± 10.6 mmHg
- SBP—systolic blood pressure (normotensive rats; 1.0 mg/kg iv, 30 min): 98.2 ± 10.4 ^c mmHg
- DBP—diastolic blood pressure (normotensive rats; 1.0 mg/kg iv, 40 min): 73.8 ± 14.0 ^a mmHg
- SBP—systolic blood pressure (normotensive rats; 1.0 mg/kg iv, 40 min): 95.7 ± 13.3 ^c mmHg
- DBP—diastolic blood pressure (normotensive rats; 1.0 mg/kg iv, 50 min): 72.7 ± 11.6 mmHg
- SBP—systolic blood pressure (normotensive rats; 1.0 mg/kg iv, 50 min): 95.5 ± 11.2 ^d mmHg
- DBP—diastolic blood pressure (normotensive rats; 1.0 mg/kg iv, 60 min): 73.2 ± 11.3 ^a mmHg
- SBP—systolic blood pressure (normotensive rats; 1.0 mg/kg iv, 60 min): 96.5 ± 10.6 ^c mmHg
- decrease of the systolic blood pressure (normotensive rats; 1 mg/kg iv, between the 5th and 60th min after the injection): 9–15%
- Blocks [4]: 6/6
- Bradycardia [4]: 6/6
- Extrasystoles [4]: 5/6
- Fibrillations [4]: 6/6
- Mortality [4]: 6/6
